In PubChem BioAssay AID330 (DTP/NCI, 2004):
Where “and” joins values, the source holds several entries; their conditions need not be identical. Equal entries are not always repeated. Inconclusive results and toxic doses are left out.

Tested on: P388 leukemia ip, CD2F1 mice, survival T/C
Assay: NCI In Vivo Anticancer Drug Screen. Data for tumor model P388 Leukemia (intraperitoneal) in CD2F1 (CDF1) mice
Settings: endpoint: median survival time, higher = longer survival
Method in brief: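 Mice carrying the transplanted tumor received test compound or vehicle. Survival was recorded in each group, and the value is the treated-group measurement divided by that of the vehicle-treated control group.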

[1] = dose: 100.0 mg/kg/injection, schedule: Q01DX009 (ip), vehicle: saline with Tween-80
[2] = dose: 200.0 mg/kg/injection, schedule: Q01DX009 (ip), vehicle: saline with Tween-80
[3] = dose: 60.0 mg/kg/injection, schedule: Q01DX005 (ip), vehicle: saline with Tween-80
[4] = dose: 120.0 mg/kg/injection, schedule: Q01DX005 (ip), vehicle: saline with Tween-80
[5] = dose: 240.0 mg/kg/injection, schedule: Q01DX005 (ip), vehicle: saline with Tween-80
[6] = dose: 25.0 mg/kg/injection, schedule: Q01DX009 (ip), vehicle: saline with Tween-80
[7] = dose: 50.0 mg/kg/injection, schedule: Q01DX009 (ip), vehicle: saline with Tween-80
[8] = dose: 12.5 mg/kg/injection, schedule: Q01DX009 (ip), vehicle: Klucel (hydroxypropylcellulose) (HPC)
[9] = dose: 25.0 mg/kg/injection, schedule: Q01DX009 (ip), vehicle: Klucel (hydroxypropylcellulose) (HPC)
[10] = dose: 50.0 mg/kg/injection, schedule: Q01DX005 (ip), vehicle: saline with Tween-80
[11] = dose: 100.0 mg/kg/injection, schedule: Q01DX005 (ip), vehicle: saline with Tween-80
[12] = dose: 60.0 mg/kg/injection, schedule: Q01DX005 (ip), vehicle: saline
[13] = dose: 50.0 mg/kg/injection, schedule: Q01DX005 (ip), vehicle: saline
[14] = dose: 100.0 mg/kg/injection, schedule: Q01DX005 (ip), vehicle: saline

COn1c2ccccc2c2c1cc1ccccc1[n+]2[O-] was tested, and the T/C (dose: 12.5 mg/kg/injection, schedule: Q01DX005 (ip), vehicle: Klucel (hydroxypropylcellulose) (HPC)) was 113 % of control, the T/C (dose: 25.0 mg/kg/injection, schedule: Q01DX005 (ip), vehicle: Klucel (hydroxypropylcellulose) (HPC)) was 111 % of control and the T/C (dose: 50.0 mg/kg/injection, schedule: Q01DX005 (ip), vehicle: Klucel (hydroxypropylcellulose) (HPC)) was 106 % of control. The T/C (dose: 100.0 mg/kg/injection, schedule: Q01DX005 (ip), vehicle: Klucel (hydroxypropylcellulose) (HPC)) was 90 % of control and the T/C (dose: 200.0 mg/kg/injection, schedule: Q01DX005 (ip), vehicle: Klucel (hydroxypropylcellulose) (HPC)) was 94 % of control.
In the case of O=C(Nc1ccccc1)c1ccccc1C(O)(c1ccccc1)c1ccc(Cl)cc1 (centres undefined), the T/C [1] is reported as 95 % of control, the T/C [2] is reported as 90 % of control and the T/C (dose: 400.0 mg/kg/injection, schedule: Q01DX009 (ip), vehicle: saline with Tween-80) is reported as 90 % of control.
For CCOC(=O)c1cc2c(nc1C)-c1cc(Cl)ccc1OC2OCc1ccccc1 (centres undefined), the T/C [3] was 88 % of control, the T/C [4] was 94 % of control and the T/C [5] was 97 % of control.
CCCCOCC1CO1 (centres undefined) was tested, and the T/C [6] was 100 % of control, the T/C [7] was 100 % of control and the T/C [1] was 95 % of control. The T/C [2] was 90 % of control.
For CCCCCCCCCCCCCCCCCCOCC(O)CN(CCO)CCO (centres undefined), the T/C [8] was 91 % of control, the T/C [9] was 91 % of control and the T/C (dose: 50.0 mg/kg/injection, schedule: Q01DX009 (ip), vehicle: Klucel (hydroxypropylcellulose) (HPC)) was 96 % of control.
In the case of Nc1ncc2c(n1)CSCC2=O, the T/C [3] is reported as 98 % of control, the T/C [4] is reported as 100 % of control and the T/C [5] is reported as 90 % of control.
NS(=O)(=O)c1ccc(N=NC2C(=O)N(C(=O)CC(=O)Nc3ccc(C(=O)O)cc3)N=C2c2ccccc2)cc1 (centres undefined) was tested, and the T/C [10] was 97 % of control, the T/C [11] was 92 % of control and the T/C (dose: 200.0 mg/kg/injection, schedule: Q01DX005 (ip), vehicle: saline with Tween-80) was 90 % of control.
With CCOc1nc(N)nc(C)c1N=Nc1ccc(O)cc1 the T/C [12] was 100 % of control, the T/C (dose: 120.0 mg/kg/injection, schedule: Q01DX005 (ip), vehicle: saline) was 99 % of control and the T/C (dose: 240.0 mg/kg/injection, schedule: Q01DX005 (ip), vehicle: saline) was 96 % of control.
In the case of CCS1=C2C(=O)CCCC2=Nc2ccccc21 (centres undefined), the T/C (dose: 15.0 mg/kg/injection, schedule: Q01DX005 (ip), vehicle: saline) is reported as 100 % of control, the T/C (dose: 30.0 mg/kg/injection, schedule: Q01DX005 (ip), vehicle: saline) is reported as 104 % of control and the T/C [13] is reported as 99 % of control. For the same compound, the T/C [12] was 92 % of control.
With NC1CCCCCC1 the T/C [13] was 110 % of control and the T/C [14] was 86 % of control.
In the case of CCCCCC(O)C1C(=O)OC(C)C(O)/C=C/C=C/C=C/C=C/C=C(\C)C(O)C(O)C(O)CC(O)CC(O)CC(O)CC(O)CC1O (centres undefined), the T/C (dose: 0.5 mg/kg/injection, schedule: Q01DX010 (ip), vehicle: saline) is reported as 100 % of control, the T/C (dose: 1.0 mg/kg/injection, schedule: Q01DX010 (ip), vehicle: saline) is reported as 100 % of control and the T/C (dose: 2.0 mg/kg/injection, schedule: Q01DX010 (ip), vehicle: saline) is reported as 100 % of control and 90 % of control. The T/C (dose: 4.0 mg/kg/injection, schedule: Q01DX010 (ip), vehicle: saline) was 90 % of control and the T/C (dose: 8.0 mg/kg/injection, schedule: Q01DX010 (ip), vehicle: saline) was 100 % of control.
In the case of CN1C(=O)C2C=CC1C1C(=O)N(c3ccc([N+](=O)[O-])cc3)C(=O)C21 (centres undefined), the T/C (dose: 100.0 mg/kg/injection, schedule: Q04DX002 (ip), vehicle: saline with Tween-80) is reported as 103 % of control, the T/C (dose: 200.0 mg/kg/injection, schedule: Q04DX002 (ip), vehicle: saline with Tween-80) is reported as 95 % of control and the T/C (dose: 400.0 mg/kg/injection, schedule: Q04DX002 (ip), vehicle: saline with Tween-80) is reported as 95 % of control.
In the case of CCc1nc(NCCCCCCCCNc2nc(C)c(-c3ccccc3O)c(CC)n2)nc(C)c1-c1ccccc1O, the T/C (dose: 100.0 mg/kg/injection, schedule: Q04DX003 (ip), vehicle: saline) is reported as 93 % of control, the T/C (dose: 200.0 mg/kg/injection, schedule: Q04DX003 (ip), vehicle: saline) is reported as 94 % of control and the T/C (dose: 400.0 mg/kg/injection, schedule: Q04DX003 (ip), vehicle: saline) is reported as 86 % of control.
In the case of c1ccc(N=NC2=NN(c3ccccc3)CS2)cc1, the T/C [6] is reported as 105 % of control and 106 % of control, the T/C [7] is reported as 101 % of control and 102 % of control and the T/C [1] is reported as 101 % of control and 102 % of control. For the same compound, the T/C [2] was 101 % of control and 106 % of control.
CC(=O)N(C(C)=O)c1cnc2c(nc3cc(C)ccn32)c1C was tested, and the T/C (dose: 100.0 mg/kg/injection, schedule: Q01DX001 (ip), vehicle: saline with Tween-80) was 92 % of control and the T/C (dose: 200.0 mg/kg/injection, schedule: Q01DX001 (ip), vehicle: saline with Tween-80) was 98 % of control.
COC(=O)/C=C(\Cl)C(=O)OC was tested, and the T/C (dose: 0.62 mg/kg/injection, schedule: Q01DX009 (ip), vehicle: saline with Tween-80) was 101 % of control, the T/C (dose: 1.25 mg/kg/injection, schedule: Q01DX009 (ip), vehicle: saline with Tween-80) was 101 % of control and the T/C (dose: 2.5 mg/kg/injection, schedule: Q01DX009 (ip), vehicle: saline with Tween-80) was 105 % of control. The T/C (dose: 5.0 mg/kg/injection, schedule: Q01DX009 (ip), vehicle: saline with Tween-80) was 102 % of control and the T/C (dose: 10.0 mg/kg/injection, schedule: Q01DX009 (ip), vehicle: saline with Tween-80) was 105 % of control.
For COC1=Nc2ccccc2S(=O)(=O)C=C1, the T/C (dose: 15.0 mg/kg/injection, schedule: Q01DX005 (ip), vehicle: saline with Tween-80) was 101 % of control, the T/C (dose: 30.0 mg/kg/injection, schedule: Q01DX005 (ip), vehicle: saline with Tween-80) was 104 % of control and the T/C [3] was 116 % of control and 119 % of control.
In the case of O=[N+]([O-])c1ccc(Oc2ccccc2[N+](=O)[O-])nc1, the T/C (dose: 6.25 mg/kg/injection, schedule: Q01DX009 (ip), vehicle: Klucel (hydroxypropylcellulose) (HPC)) is reported as 106 % of control, the T/C [8] is reported as 105 % of control and the T/C [9] is reported as 103 % of control.
For CCCC/C(=N\NC(N)=NC)c1ccccc1, the T/C (dose: 25.0 mg/kg/injection, schedule: Q04DX002 (ip), vehicle: saline with Tween-80) was 99 % of control and the T/C (dose: 50.0 mg/kg/injection, schedule: Q04DX002 (ip), vehicle: saline with Tween-80) was 100 % of control.
For COc1cc(Nc2ccccc2)c2c(c1N)C(=O)c1ccccc1C2=O, the T/C [10] was 91 % of control and the T/C [11] was 88 % of control.
CSc1cccnc1SC was tested, and the T/C (dose: 50.0 mg/kg/injection, schedule: Q01DX009 (ip), vehicle: saline) was 98 % of control, the T/C (dose: 100.0 mg/kg/injection, schedule: Q01DX009 (ip), vehicle: saline) was 98 % of control and the T/C (dose: 200.0 mg/kg/injection, schedule: Q01DX009 (ip), vehicle: saline) was 92 % of control.
For CC(C)[Si]1(C(C)C)N[Si](C(C)C)(C(C)C)N[Si](C(C)C)(C(C)C)N1, the T/C (dose: 60.0 mg/kg/injection, schedule: Q01DX005 (ip), vehicle: Klucel (hydroxypropylcellulose) (HPC)) was 108 % of control, the T/C (dose: 120.0 mg/kg/injection, schedule: Q01DX005 (ip), vehicle: Klucel (hydroxypropylcellulose) (HPC)) was 93 % of control and the T/C (dose: 240.0 mg/kg/injection, schedule: Q01DX005 (ip), vehicle: Klucel (hydroxypropylcellulose) (HPC)) was 100 % of control.
With CC(O)C(NC(=O)c1ccc([N+](=O)[O-])cc1)C(=O)O (centres undefined) the T/C [13] was 105 % of control, the T/C [14] was 102 % of control and the T/C (dose: 200.0 mg/kg/injection, schedule: Q01DX005 (ip), vehicle: saline) was 91 % of control.
In the case of Cc1c2oc3c(C)c([N+](=O)[O-])cc(C(=O)NC4C(=O)NC(C(C)C)C(=O)N5CCCC5C(=O)N(C)CC(=O)N(C)C(C(C)C)C(=O)OC4C)c3nc-2c(C(=O)NC2C(=O)NC(C(C)C)C(=O)N3CCCC3C(=O)N(C)CC(=O)N(C)C(C(C)C)C(=O)OC2C)c(N)c1=O (centres undefined), the T/C (dose: 0.01 mg/kg/injection, schedule: Q01DX009 (ip), vehicle: Klucel (hydroxypropylcellulose) (HPC)) is reported as 90 % of control, the T/C (dose: 0.02 mg/kg/injection, schedule: Q01DX009 (ip), vehicle: Klucel (hydroxypropylcellulose) (HPC)) is reported as 106 % of control and the T/C (dose: 0.04 mg/kg/injection, schedule: Q01DX009 (ip), vehicle: Klucel (hydroxypropylcellulose) (HPC)) is reported as 108 % of control. The T/C (dose: 0.08 mg/kg/injection, schedule: Q01DX009 (ip), vehicle: Klucel (hydroxypropylcellulose) (HPC)) was 120 % of control and 217 % of control and the T/C (dose: 0.3 mg/kg/injection, schedule: Q01DX009 (ip), vehicle: Klucel (hydroxypropylcellulose) (HPC)) was 218 % of control.
